What was measured:
[1] = system: hair groups derived from C57BL/6N dorsal body hair skin transplanted in Balb/c nu/nu mice; assay: Evaluation of hair-diameter-increasing activity (hair shafts grown after third cycle of Exemplary Test 1); format: in vivo
Protocol: Dorsal body hair skin was collected from C57BL/6N mice (SLC) of age 7 to 8 weeks in accordance with a procedure similar to that at Exemplary Test 1, above, the drug being applied after the hair groups derived from the dorsal body hair skin that had been fabricated were transplanted in Balb/c nu/nu mice (SLC) of age 4 to 6 weeks. Testing and breeding of animals complied with pertinent laws, regulations, ordinances, and guidelines, and was performed with the approval of the Experimental Ethics Review Board of the Institute of Physical and Chemical Research. The following three solutions were used during testing. • 60% aqueous ethanol solution • 5% minoxidil solution • 1% phytosphingosine solution Measurement of increase in hair diameter was carried out using hair shafts which had grown following completion of the third cycle at Exemplary Test 1. Of the hair shafts that were collected, two zigzag hairs were used. Three locations were selected in regions where diameter was large in the central portions thereof using a square 100 μm on a side. Measurement of selected regions was carried out at five locations. Hairs as they existed following application of the drug were used for measurement of hair shaft diameter.

[2] = system: skin samples derived from C57BL/6N mouse dorsal body hair skin grafted onto Balb/c nu/nu mice; assay: Evaluation of hair growth activity: drug applied on skin samples transplanted in mice; format: in vivo
Protocol: C57BL/6N mice (male) and Balb/c nu/nu mice (female) were purchased from Japan SLC, Inc. (Japan) and bred, and were thereafter made available for the following testing. Note that the testing and breeding of animals complied with pertinent laws, regulations, ordinances, and guidelines, and was performed with the approval of the Experimental Ethics Review Board of the Institute of Physical and Chemical Research. The following reagents were respectively prepared. • Comparative Example 1: 60% aqueous ethanol solution • Comparative Example 2: 5% minoxidil solution • Comparative Example 3: 3% minoxidil solution • Comparative Example 4: 1% minoxidil solution • Working Example 1: 3% phytosphingosine solution • Working Example 2: 1% phytosphingosine solution To collect dorsal body hair skin in the form of anagen stage VI skin 12 to 14 days following depilation, C57BL/6N mice of age 7 to 8 weeks were depilated at locations where dorsal body hair skin was intended to be collected, and were bred for 12 to 14 days. The depilated C57BL/6N mice were thereafter euthanized by cervical dislocation, following which a suitable amount of dorsal body hair skin was collected from the locations at which dorsal body hair skin was intended to be collected. The collected skin was immersed in DMEM culture medium (hereinafter “DMEM 10”) which contained 10 mM HEPES, 10% fetal bovine serum, and 1% penicillin/streptomycin solution. The collected dorsal body hair skin was grasped with bent-nose curved tweezers and was treated by immersion for 10 seconds in a sterilizing solution. Sterilization treatment was performed by carrying out treatment with 7% povidone iodine solution two times, treatment with PBS (−) three times, and treatment with DMEM 10 two times, in this order, with fresh solutions respectively being used each time. Following sterilization treatment, these were immersed in clean DMEM 10. Following sterilization treatment, the dorsal body hair skin was cut into pieces and formed into blocks. The transparent connective tissue which adhered to the cutaneous muscle layer of the skin was excised therefrom using curved scissors, and hair groups were cut into rectangular strips in parallel fashion with respect to the direction of the wave of the hair. At this time, these were cut into blocks such that there were 6 rows of hair follicles along the long axis, adjustment having been carried out so that there were 5 rows of hair follicles along the short axis. The skin samples derived from dorsal body hair skin that were prepared in accordance with the foregoing were grafted onto Balb/c nu/nu mice of age 4 to 6 weeks. More specifically, mice were anesthetized in the usual way using isoflurane gas. The dorsal area of the mice was then disinfected using 7% povidone iodine solution, following which the mice were made to assume a naturally recumbent posture. In addition, a Mani ophthalmic knife (Mani, Inc.; Japan) was used to pierce the skin at the dorsal area of the mice, the grafts which were formed extending from the epidermal layer of the skin to the subdermal layer. The skin samples derived from dorsal body hair skin were inserted into the grafts formed thereat in such fashion as to cause the hair groups to be directed toward the body surface side of the grafts. Skin sample transplanted depth was adjusted so as to cause the top portion of the hair group to be in a state such that it was exposed at the top portion of the graft. To protect the grafts, Nurseban (registered trademark) (Sunplanet Co., Ltd.; Japan) and surgical tape (3M Japan Limited; Japan) were then used as protective tape to cover the grafts at which the skin samples derived from dorsal body hair skin had been transplanted. The protective tape was removed 5 to 7 days following transplantation, and survival of the transplanted skin samples derived from dorsal body hair skin was determined by visual inspection or digital microscopy (Keyence Corporation; Japan), after which follow-up observation was carried out. […]

[3] = 1% phytosphingosine solution (Working Example 2), second hair cycle
[4] = 1% phytosphingosine solution (Working Example 2), third hair cycle
[5] = 1% phytosphingosine solution, second hair cycle vs first hair cycle
[6] = 1% phytosphingosine solution, third hair cycle vs first hair cycle
[7] = 3% phytosphingosine solution (Working Example 1), second hair cycle
[8] = 3% phytosphingosine solution (Working Example 1), third hair cycle
[9] = 3% phytosphingosine solution, second hair cycle vs first hair cycle
[10] = 3% phytosphingosine solution, third hair cycle vs first hair cycle
[11] = solution containing 1% phytosphingosine
[12] = solution containing 3% phytosphingosine

Structure (SMILES): CCCCCCCCCCCCCC[C@@H](O)[C@@H](O)[C@@H](N)CO [phytosphingosine]
- Hair shaft diameter ([1]; 1% phytosphingosine solution applied, hair shafts after third cycle): 20.15 μm
- hair shaft diameter as percent of control ([1]; 1% phytosphingosine solution vs 60% aqueous ethanol solution): 127%
- Hair shaft elongation rate [2, 3]: 0.48 ± 0.03 mm/day
- Maximum hair shaft length [2, 3]: 5.1 ± 0.2 mm
- Hair shaft elongation rate [2, 4]: 0.45 ± 0.02 mm/day
- Maximum hair shaft length [2, 4]: 4.7 ± 0.1 mm
- Hair shaft elongation rate, percent change relative to reference data [2, 5]: 129.73%
- Maximum hair shaft length, percent change relative to reference data [2, 5]: 113.33%
- Hair shaft elongation rate, percent change relative to reference data [2, 6]: 121.62%
- Maximum hair shaft length, percent change relative to reference data [2, 6]: 104.44%
- Hair shaft elongation rate [2, 7]: 0.46 ± 0.03 mm/day
- Maximum hair shaft length [2, 7]: 5.4 ± 0.1 mm
- Hair shaft elongation rate [2, 8]: 0.43 ± 0.05 mm/day
- Maximum hair shaft length [2, 8]: 5.1 ± 0.3 mm
- Hair shaft elongation rate, percent change relative to reference data [2, 9]: 109.52%
- Maximum hair shaft length, percent change relative to reference data [2, 9]: 122.73%
- Hair shaft elongation rate, percent change relative to reference data [2, 10]: 102.38%
- Maximum hair shaft length, percent change relative to reference data [2, 10]: 115.91%
- hair growth activity [2, 11]: exhibit hair growth activity
- hair shaft elongation rate as compared with reference data [2, 11]: significant improvement
- maximum hair shaft length as compared with reference data ([2]; solution containing 1% phytosphingosine, third hair cycle): no significant difference
- hair growth activity [2, 12]: exhibit hair growth activity
- hair shaft elongation rate as compared with reference data [2, 12]: no significant difference
- maximum hair shaft length as compared with reference data [2, 12]: significant improvement
